Where “and” joins values, the source holds several entries; their conditions need not be identical. Equal values may be shown once.
How the values were obtained:
Test in all cases: radiometric filter-binding kinase assay, Kinase HotSpot
Settings in all cases: compound 0.5 µM; ATP 10 µM
ABL2 (human) = ABL2 (human) (UniProt P42684)
ADRBK1 (human) = ADRBK1 (human) (UniProt P25098)
ADRBK2 (human) = ADRBK2 (human) (UniProt P35626)
BRAF (human) = BRAF (human) (UniProt P15056)
CAMK1D (human) = CAMK1D (human) (UniProt Q8IU85)
CAMKK2 (human) = CAMKK2 (human) (UniProt Q96RR4)
CAMKK2 (human), sequence (Q96RR4 whole entry, looked up): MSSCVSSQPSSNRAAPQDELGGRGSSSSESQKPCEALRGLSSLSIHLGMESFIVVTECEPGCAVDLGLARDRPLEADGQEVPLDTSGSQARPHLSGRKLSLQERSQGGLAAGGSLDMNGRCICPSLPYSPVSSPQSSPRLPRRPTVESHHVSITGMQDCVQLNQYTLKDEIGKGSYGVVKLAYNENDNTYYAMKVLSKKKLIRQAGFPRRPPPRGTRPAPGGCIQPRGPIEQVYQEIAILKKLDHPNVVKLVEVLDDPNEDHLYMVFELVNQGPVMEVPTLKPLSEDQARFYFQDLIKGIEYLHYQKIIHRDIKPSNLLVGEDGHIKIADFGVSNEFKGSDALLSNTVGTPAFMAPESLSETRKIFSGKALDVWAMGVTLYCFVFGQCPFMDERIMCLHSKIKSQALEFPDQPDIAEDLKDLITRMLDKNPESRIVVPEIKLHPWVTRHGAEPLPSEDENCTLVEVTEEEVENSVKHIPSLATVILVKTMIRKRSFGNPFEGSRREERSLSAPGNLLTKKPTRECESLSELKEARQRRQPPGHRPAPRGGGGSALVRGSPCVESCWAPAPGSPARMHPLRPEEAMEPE

CDC42BPA (human) = CDC42BPA (human) (UniProt Q5VT25)
CHEK1 (human) = CHEK1 (human) (UniProt O14757)
DAPK2 (human) = DAPK2 (human) (UniProt Q9UIK4)
DAPK2 (human), sequence (Q9UIK4 whole entry, looked up): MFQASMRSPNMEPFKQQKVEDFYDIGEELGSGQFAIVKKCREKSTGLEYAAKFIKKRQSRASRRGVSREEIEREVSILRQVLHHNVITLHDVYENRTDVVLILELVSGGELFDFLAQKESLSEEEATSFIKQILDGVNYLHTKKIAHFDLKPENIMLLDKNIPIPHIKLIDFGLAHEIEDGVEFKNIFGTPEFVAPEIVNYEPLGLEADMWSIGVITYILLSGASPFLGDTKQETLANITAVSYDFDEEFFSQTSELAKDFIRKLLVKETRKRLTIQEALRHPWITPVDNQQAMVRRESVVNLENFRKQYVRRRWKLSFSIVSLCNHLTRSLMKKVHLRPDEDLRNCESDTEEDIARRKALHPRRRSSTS

DSTYK (human) = DSTYK (human) (UniProt Q6XUX3)
DYRK1B (human) = DYRK1B (human) (UniProt Q9Y463)
EGFR (human) = EGFR (human) (UniProt P00533)
EPHB4 (human) = EPHB4 (human) (UniProt P54760)
EPHB4 (human), sequence (P54760 whole entry, looked up): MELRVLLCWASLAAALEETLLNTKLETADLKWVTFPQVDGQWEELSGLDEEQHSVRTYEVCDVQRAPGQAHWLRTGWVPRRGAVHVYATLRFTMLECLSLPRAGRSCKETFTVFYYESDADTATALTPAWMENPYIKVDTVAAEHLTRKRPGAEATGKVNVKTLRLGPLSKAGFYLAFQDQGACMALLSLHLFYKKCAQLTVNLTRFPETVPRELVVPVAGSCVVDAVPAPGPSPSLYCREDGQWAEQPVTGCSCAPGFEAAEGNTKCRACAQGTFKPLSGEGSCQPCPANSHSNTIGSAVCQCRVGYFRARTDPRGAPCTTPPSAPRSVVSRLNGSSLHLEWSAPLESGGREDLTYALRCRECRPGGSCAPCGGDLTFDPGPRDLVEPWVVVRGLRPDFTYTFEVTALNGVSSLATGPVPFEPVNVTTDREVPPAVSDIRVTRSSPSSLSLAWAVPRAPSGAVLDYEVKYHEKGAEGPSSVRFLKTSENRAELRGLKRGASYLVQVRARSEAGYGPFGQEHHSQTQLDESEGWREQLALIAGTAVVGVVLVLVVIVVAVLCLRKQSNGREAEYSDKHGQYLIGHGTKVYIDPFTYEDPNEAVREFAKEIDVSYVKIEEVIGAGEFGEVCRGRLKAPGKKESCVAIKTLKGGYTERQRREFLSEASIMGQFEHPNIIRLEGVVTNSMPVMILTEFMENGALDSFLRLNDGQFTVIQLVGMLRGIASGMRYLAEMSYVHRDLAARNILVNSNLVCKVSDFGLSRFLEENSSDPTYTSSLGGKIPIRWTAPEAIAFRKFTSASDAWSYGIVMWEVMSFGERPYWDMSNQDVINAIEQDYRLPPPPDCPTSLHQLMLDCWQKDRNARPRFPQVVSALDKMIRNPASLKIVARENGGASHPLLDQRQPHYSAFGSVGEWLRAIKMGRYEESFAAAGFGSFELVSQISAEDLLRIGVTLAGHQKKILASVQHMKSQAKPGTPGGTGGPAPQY

ERBB2 (human) = ERBB2 (human) (UniProt P04626)
FGR (human) = FGR (human) (UniProt P09769)
INSR (human) = INSR (human) (UniProt P06213)
JAK2 JH1 JH2 (human) = JAK2 JH1 JH2 (human) (UniProt O60674)
LCK (human) = LCK (human) (UniProt P06239)
LYN (human) = LYN (human) (UniProt P07948)
LYN (human), sequence (P07948 whole entry, looked up): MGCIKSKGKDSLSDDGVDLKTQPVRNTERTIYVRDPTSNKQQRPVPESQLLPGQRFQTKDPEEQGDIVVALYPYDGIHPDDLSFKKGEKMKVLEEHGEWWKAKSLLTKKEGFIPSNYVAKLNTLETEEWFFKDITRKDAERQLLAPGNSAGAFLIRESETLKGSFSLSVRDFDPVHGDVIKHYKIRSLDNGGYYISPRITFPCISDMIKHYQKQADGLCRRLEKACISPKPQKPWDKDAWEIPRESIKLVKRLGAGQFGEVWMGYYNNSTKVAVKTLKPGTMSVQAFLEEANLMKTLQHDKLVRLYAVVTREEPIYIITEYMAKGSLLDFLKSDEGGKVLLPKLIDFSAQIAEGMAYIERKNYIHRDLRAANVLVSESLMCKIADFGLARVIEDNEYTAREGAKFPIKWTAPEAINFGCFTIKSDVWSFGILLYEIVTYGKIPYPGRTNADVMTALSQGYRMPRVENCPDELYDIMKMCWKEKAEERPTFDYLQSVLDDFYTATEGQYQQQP

MAP3K10 (human) = MAP3K10 (human) (UniProt Q02779)
MAP3K10 (human), sequence (Q02779 whole entry, looked up): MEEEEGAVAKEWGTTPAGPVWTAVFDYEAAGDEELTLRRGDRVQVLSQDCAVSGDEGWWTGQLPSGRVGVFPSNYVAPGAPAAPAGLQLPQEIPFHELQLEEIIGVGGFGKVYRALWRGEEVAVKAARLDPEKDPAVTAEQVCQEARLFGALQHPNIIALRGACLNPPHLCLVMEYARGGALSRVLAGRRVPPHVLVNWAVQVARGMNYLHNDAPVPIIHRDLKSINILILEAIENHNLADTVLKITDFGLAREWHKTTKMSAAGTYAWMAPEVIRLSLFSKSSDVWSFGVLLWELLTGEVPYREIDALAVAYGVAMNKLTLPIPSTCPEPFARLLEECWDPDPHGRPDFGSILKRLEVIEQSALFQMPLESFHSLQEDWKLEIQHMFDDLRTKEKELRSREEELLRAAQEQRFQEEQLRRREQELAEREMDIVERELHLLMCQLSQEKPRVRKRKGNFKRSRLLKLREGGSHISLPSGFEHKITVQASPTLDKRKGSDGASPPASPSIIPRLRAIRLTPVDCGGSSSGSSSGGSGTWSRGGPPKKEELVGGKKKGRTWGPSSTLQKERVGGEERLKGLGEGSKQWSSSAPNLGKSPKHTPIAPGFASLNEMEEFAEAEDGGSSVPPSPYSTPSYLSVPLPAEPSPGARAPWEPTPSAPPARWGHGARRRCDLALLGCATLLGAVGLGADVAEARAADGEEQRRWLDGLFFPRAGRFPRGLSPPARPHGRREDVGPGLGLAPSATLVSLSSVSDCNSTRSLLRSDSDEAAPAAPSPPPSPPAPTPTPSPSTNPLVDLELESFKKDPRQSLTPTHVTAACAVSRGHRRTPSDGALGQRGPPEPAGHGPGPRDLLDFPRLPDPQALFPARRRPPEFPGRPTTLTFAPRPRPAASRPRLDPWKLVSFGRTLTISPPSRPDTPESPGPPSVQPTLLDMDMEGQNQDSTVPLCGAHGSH

NTRK2 (human) = NTRK2 (human) (UniProt Q16620)
NUAK1 (human) = NUAK1 (human) (UniProt O60285)
OXSR1 (human) = OXSR1 (human) (UniProt O95747)
PAK7 (human) = PAK7 (human) (UniProt Q9P286)
PIM3 (human) = PIM3 (human) (UniProt Q86V86)
PLK3 (human) = PLK3 (human) (UniProt Q9H4B4)
PRKG1 (human) = PRKG1 (human) (UniProt Q13976)
PRKG1 (human), sequence (Q13976 whole entry, looked up): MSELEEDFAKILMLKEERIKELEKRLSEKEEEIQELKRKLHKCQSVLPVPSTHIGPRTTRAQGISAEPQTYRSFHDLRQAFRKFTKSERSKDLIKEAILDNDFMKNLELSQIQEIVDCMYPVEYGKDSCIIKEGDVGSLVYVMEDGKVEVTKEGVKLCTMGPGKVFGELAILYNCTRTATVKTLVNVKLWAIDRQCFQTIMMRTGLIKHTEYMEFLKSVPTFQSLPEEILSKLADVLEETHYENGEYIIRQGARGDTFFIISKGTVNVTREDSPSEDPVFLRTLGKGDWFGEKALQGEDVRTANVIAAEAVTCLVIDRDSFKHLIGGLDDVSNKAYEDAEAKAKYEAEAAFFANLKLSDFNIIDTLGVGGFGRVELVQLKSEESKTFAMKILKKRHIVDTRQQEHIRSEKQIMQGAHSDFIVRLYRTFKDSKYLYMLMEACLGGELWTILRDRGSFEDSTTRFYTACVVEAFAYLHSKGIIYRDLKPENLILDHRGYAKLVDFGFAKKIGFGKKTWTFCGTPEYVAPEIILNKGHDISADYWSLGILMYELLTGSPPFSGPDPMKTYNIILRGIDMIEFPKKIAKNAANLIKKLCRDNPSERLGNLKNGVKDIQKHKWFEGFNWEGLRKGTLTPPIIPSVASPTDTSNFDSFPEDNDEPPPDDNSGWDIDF

RPS6KA1 KD1 KD2 (human) = RPS6KA1 KD1 KD2 (human) (UniProt Q15418)
RPS6KA4 KD2 (human) = RPS6KA4 KD2 (human) (UniProt O75676)
SRMS (human) = SRMS (human) (UniProt Q9H3Y6)
SRMS (human), sequence (Q9H3Y6 whole entry, looked up): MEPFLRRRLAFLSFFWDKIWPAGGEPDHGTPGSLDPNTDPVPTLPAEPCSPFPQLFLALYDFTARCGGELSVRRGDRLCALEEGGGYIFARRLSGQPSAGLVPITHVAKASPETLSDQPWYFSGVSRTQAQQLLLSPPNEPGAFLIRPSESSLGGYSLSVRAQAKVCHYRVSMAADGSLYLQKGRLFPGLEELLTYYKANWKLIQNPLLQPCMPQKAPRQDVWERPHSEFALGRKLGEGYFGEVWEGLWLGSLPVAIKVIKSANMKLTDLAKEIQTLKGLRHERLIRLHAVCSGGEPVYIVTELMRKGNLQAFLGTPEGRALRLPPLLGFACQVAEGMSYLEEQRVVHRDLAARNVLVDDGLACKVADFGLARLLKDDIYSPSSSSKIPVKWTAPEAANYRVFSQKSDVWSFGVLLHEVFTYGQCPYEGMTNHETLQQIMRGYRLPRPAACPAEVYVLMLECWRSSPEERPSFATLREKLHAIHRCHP

STK25 (human) = STK25 (human) (UniProt O00506)
STK25 (human), sequence (O00506 whole entry, looked up): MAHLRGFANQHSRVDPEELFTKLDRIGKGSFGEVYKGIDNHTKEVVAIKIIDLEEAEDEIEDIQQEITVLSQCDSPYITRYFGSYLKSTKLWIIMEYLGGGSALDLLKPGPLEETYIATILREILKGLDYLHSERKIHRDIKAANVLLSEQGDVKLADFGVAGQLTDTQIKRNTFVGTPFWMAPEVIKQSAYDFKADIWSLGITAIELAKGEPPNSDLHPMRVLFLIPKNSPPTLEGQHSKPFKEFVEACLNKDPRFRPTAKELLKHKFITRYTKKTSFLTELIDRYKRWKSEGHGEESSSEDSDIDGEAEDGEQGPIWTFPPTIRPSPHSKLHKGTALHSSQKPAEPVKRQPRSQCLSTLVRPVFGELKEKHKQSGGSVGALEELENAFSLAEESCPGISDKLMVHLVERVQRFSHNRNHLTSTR

TAOK1 (human) = TAOK1 (human) (UniProt Q7L7X3)
TYRO3 (human) = TYRO3 (human) (UniProt Q06418)
WEE1 (human) = WEE1 (human) (UniProt P30291)
YES1 (human) = YES1 (human) (UniProt P07947)
ULK2 (human) = ULK2 (human) (UniProt Q8IYT8)

Compound | residual activity (ABL2 (human)) [%] | residual activity (ADRBK1 (human)) [%] | residual activity (ADRBK2 (human)) [%] | residual activity (BRAF (human)) [%] | residual activity (CAMK1D (human)) [%] | residual activity (CAMKK2 (human)) [%] | residual activity (CDC42BPA (human)) [%] | residual activity (CHEK1 (human)) [%] | residual activity (DAPK2 (human)) [%] | residual activity (DSTYK (human)) [%] | residual activity (DYRK1B (human)) [%] | residual activity (EGFR (human)) [%] | residual activity (EPHB4 (human)) [%] | residual activity (ERBB2 (human)) [%] | residual activity (FGR (human)) [%] | residual activity (INSR (human)) [%] | residual activity (JAK2 JH1 JH2 (human)) [%] | residual activity (LCK (human)) [%] | residual activity (MAP3K10 (human)) [%] | residual activity (NTRK2 (human)) [%] | further results
O=c1[nH]c2ccccc2n1C1CCN(Cc2ccc(-c3nc4cc5[nH]cnc5cc4nc3-c3ccccc3)cc2)CC1 | 96.8 | 95.3 | 87.3 | 101 | 107 | 112 | 105 | 107 | 99 | 104 | 97.9 | 99.8 | 96.4 | 88.9 | 95.7 | 102 | 104 | 98.2 | 102 | 99.4 | residual activity (LYN (human)): 102% and 116%; residual activity (NUAK1 (human)): 103%; residual activity (OXSR1 (human)): 102%; residual activity (PAK7 (human)): 110%; residual activity (PIM3 (human)): 106%; residual activity (PLK3 (human)): 99.1%; residual activity (PRKG1 (human)): 101% and 103%; residual activity (RPS6KA1 KD1 KD2 (human)): 101%; residual activity (RPS6KA4 KD2 (human)): 98.8%; residual activity (SRMS (human)): 93.1%; residual activity (STK25 (human)): 89.8%; residual activity (TAOK1 (human)): 102%; residual activity (TYRO3 (human)): 103%; residual activity (WEE1 (human)): 93.9%; residual activity (YES1 (human)): 90.8%
N#CCCc1ccc2c(c1)-c1[nH]c3ccc([N+](=O)[O-])cc3c1CC(=O)N2 | 49.8 | 96.4 | 97.1 | 99.3 | 91.8 | 86.8 | 73.1 | 45.1 | 96.5 | 67.1 | 76.8 | 94.4 | 82.2 | 98.6 | 31 | 94.1 | 93 | 78.2 | 30 | 86.4 | residual activity (NUAK1 (human)): 14.1%; residual activity (OXSR1 (human)): 94.6%; residual activity (PAK7 (human)): 60.3%; residual activity (PIM3 (human)): 70.9%; residual activity (PLK3 (human)): 99.7%; residual activity (PRKG1 (human)): 88.4% and 99.3%; residual activity (RPS6KA1 KD1 KD2 (human)): 59.9%; residual activity (RPS6KA4 KD2 (human)): 85.8%; residual activity (SRMS (human)): 78.6%; residual activity (STK25 (human)): 91.1%; residual activity (TAOK1 (human)): 73.1%; residual activity (TYRO3 (human)): 94.8%; residual activity (ULK2 (human)): 73.1%; residual activity (WEE1 (human)): 100%; residual activity (YES1 (human)): 35.8%

Reference: the kinase profiling compilation of Christmann-Franck et al. (2016)
